Experimental findings from patent US20180036439A1, “COUPLED IDENTIFICATION AND TREATMENT OF CANCER” (priority 2009, published 2018) are described below.

Common to all, as to assay type: in vivo, human
The nature of data set [1]: tolerability of Nexavar treatment in the subject with primary liver cancer. The following applies: 800 mg/day, terminated after about 10 weeks; one patient. On the procedure:
(§1) The subject of this study was a person who was diagnosed with non-resectable primary liver cancer (hepatocellular carcinoma). The diagnosis was based on results of x-ray CT scans and tumor biopsy. Within two weeks of diagnosis the subject began treatment with Nexavar® (sorafenib) at a dose of 800 mg/day.

Data set [2] deals with non-resectable primary liver cancer (hepatocellular carcinoma). Nature of the data set: oral gallium maltolate treatment of a subject with primary liver cancer. As to conditions: one patient. On the procedure:
as §1
Based on the high avidity of the subject's hepatocellular carcinoma for gallium, as shown by the gallium scans, treatment of the patient with orally administered gallium maltolate was initiated. Treatment was started about a week after the gallium scans were performed. Gallium maltolate was administered as two 750 mg tablets taken once per day before breakfast (for a dose of 1500 mg/day). The largest tumor was about 20 cm in diameter by CT scan at three weeks before gallium maltolate administration was started.
The patient reported that their right abdominal pain was nearly gone, and they could lie and sleep on their right side.

Data set [3] has as its system liver tumors (hepatocellular carcinoma). As to the kind of experiment: gallium scan (planar and SPECT) after intravenous ^67Ga citrate. The following applies: 134 MBq ^67Ga citrate i.v., one patient. On the procedure: Very briefly, a gallium scan is performed by administering a small amount of a gallium radioisotope (usually ^67Ga) to a subject and then scanning the subject to map the distribution of resulting radioactivity in the body; the amount of radioactivity will be directly proportional to the uptake of gallium. Scanning is performed on the whole body or portions of the body using a scintillation detector or other suitable radiation detector.
Scanning is performed using a scintillation detector or another detector that is sensitive to the radiation produced by the gallium radioisotope (e.g., gamma rays for ^67Ga). For ^67Ga, a multipeak gamma camera with a large field of view and head shielding is commonly used. Scans may be either planar (two-dimensional (2-D) imaging) or as multiple tomographic scans leading to three-dimensional (3-D) imaging. The latter scans generally employ single-photon emission computerized tomography (SPECT or SPET), which may provide higher contrast and localization than planar images alone.
Planar and SPECT images were obtained 48 hours after ^67Ga citrate administration. […] At that time the subject was experiencing moderate nausea, anorexia, and fatigue, with severe pain and tenderness of the right abdomen that prevented the subject from lying on their right side.

The mark [4] stands for this setting: about four months into treatment, 1500 mg/day oral.
[5] abbreviates: two weeks after start of 1500 mg/day oral.

Each structure is given as a SMILES string.

Take `CNC(=O)c1cc(Oc2ccc(NC(=O)Nc3ccc(Cl)c(C(F)(F)F)c3)cc2)ccn1` [Nexavar®, sorafenib]: the “adverse effects that led to termination of treatment” value in data set [1] was “severe peripheral neuropathy, nausea, fatigue, gastrointestinal disorders, and anorexia”.

For the compound `Cc1occc(=O)c1[O-].Cc1occc(=O)c1[O-].Cc1occc(=O)c1[O-].[Ga+3]` [gallium maltolate, tris(3-hydroxy-2-methyl-4H-pyran-4-onato)gallium], in data set [2] (setting [4]), the “state of the primary tumor by CT scan” value is on record as “apparent necrosis of the primary tumor” and the “tumor growth by CT scan” value is “no new tumor growth”. Further, in data set [2] (over the next six months of treatment, 1500 mg/day oral), the “patient's condition” value was “continued to improve”. For the same compound, the “serum bilirubin (total)” value in data set [2] (two weeks after start of 1500 mg/day oral, before treatment 27.5, normal 2-20) was 11.9 µmol/L. Besides, the “serum AST” value in data set [2] (two weeks after start of 1500 mg/day oral, before treatment 132, normal 0-40) is reported as 70 IU/L. Besides, in data set [2] (setting [5]), the “ability to engage in normal activities” value is given as “substantially increased” and the “right abdominal pain (patient report)” value is recorded as “nearly gone”.

For `O=C([O-])CC(O)(CC(=O)[O-])C(=O)[O-].[67Ga+3]` [^67Ga citrate], the “gallium uptake in the surrounding liver tissue and in other organs” value in data set [3] (images 48 hours after administration) was “very low uptake”. For the same compound, in data set [3] (planar and SPECT images 48 hours after administration), the “gallium uptake in the liver tumors, average counts per second relative to surrounding healthy liver tissue” value is “twenty to fifty”.
